# Read-outs that look alike come from different tables or passages of the source.
# Key:
# [1] = target: T1, AEA-DA lipid probe targets in Neuro2a cells (Mus musculus, UniProt Q6QD59)
# T1 sequence (Q6QD59 1-228): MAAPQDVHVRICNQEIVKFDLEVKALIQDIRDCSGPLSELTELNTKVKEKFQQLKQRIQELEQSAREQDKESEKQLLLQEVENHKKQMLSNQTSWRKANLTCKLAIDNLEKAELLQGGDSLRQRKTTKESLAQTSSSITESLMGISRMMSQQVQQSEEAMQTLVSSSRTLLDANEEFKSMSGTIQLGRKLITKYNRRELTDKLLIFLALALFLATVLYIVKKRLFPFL
# [2] = target: AEA-DA lipid probe targets in Neuro2a cells (Mus musculus, UniProt Q791T5)
# AEA-DA lipid probe targets in Neuro2a cells (Mus musculus, UniProt Q791T5), sequence (Q791T5 whole entry): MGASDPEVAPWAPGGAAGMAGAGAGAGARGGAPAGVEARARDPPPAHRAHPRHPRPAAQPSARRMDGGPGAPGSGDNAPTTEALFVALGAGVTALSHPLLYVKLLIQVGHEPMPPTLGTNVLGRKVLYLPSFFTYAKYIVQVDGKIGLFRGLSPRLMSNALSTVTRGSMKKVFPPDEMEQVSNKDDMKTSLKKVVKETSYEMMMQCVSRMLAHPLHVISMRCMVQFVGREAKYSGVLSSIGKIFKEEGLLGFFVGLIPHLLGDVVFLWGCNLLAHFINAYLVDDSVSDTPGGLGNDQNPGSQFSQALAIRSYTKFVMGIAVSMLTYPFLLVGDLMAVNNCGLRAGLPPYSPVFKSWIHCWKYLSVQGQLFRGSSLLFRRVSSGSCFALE
# [3] = target: T2, AEA-DA lipid probe targets in Neuro2a cells (Mus musculus, UniProt Q8CAQ8)
# T2 sequence (Q8CAQ8 34-757): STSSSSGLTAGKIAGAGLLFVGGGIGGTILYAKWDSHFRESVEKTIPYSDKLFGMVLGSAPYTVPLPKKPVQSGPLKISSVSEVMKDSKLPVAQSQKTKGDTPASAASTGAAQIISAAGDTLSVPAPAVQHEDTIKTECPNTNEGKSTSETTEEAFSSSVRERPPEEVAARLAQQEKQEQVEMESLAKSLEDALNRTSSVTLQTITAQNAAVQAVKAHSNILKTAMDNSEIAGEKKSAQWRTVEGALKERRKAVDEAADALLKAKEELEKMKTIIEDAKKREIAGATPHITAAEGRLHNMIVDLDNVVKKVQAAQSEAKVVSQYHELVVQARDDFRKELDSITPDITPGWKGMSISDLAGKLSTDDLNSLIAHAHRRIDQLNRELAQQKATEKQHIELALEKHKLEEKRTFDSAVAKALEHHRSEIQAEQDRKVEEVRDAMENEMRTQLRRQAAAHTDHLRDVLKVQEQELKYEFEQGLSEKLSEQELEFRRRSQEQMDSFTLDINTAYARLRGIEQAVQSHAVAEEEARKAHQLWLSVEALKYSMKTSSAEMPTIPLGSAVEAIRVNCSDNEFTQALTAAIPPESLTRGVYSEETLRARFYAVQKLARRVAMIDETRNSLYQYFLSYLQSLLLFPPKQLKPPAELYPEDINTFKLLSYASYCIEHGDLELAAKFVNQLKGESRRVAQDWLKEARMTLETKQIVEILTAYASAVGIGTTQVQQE
# [4] = target: AEA-DA lipid probe targets in Neuro2a cells (Mus musculus, UniProt Q8JZU2)
# AEA-DA lipid probe targets in Neuro2a cells (Mus musculus, UniProt Q8JZU2), sequence (Q8JZU2 14-311): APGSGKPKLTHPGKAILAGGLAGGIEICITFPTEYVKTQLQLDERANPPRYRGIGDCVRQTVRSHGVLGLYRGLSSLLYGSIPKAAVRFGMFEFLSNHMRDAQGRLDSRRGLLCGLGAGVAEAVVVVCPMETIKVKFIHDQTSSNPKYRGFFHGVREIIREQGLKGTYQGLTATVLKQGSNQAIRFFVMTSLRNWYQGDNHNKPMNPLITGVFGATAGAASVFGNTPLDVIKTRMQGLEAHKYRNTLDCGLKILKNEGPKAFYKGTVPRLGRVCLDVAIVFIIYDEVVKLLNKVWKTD
# [5] = target: AEA-DA lipid probe targets in Neuro2a cells (Mus musculus, UniProt Q8VDD5)
# AEA-DA lipid probe targets in Neuro2a cells (Mus musculus, UniProt Q8VDD5), sequence (Q8VDD5 whole entry): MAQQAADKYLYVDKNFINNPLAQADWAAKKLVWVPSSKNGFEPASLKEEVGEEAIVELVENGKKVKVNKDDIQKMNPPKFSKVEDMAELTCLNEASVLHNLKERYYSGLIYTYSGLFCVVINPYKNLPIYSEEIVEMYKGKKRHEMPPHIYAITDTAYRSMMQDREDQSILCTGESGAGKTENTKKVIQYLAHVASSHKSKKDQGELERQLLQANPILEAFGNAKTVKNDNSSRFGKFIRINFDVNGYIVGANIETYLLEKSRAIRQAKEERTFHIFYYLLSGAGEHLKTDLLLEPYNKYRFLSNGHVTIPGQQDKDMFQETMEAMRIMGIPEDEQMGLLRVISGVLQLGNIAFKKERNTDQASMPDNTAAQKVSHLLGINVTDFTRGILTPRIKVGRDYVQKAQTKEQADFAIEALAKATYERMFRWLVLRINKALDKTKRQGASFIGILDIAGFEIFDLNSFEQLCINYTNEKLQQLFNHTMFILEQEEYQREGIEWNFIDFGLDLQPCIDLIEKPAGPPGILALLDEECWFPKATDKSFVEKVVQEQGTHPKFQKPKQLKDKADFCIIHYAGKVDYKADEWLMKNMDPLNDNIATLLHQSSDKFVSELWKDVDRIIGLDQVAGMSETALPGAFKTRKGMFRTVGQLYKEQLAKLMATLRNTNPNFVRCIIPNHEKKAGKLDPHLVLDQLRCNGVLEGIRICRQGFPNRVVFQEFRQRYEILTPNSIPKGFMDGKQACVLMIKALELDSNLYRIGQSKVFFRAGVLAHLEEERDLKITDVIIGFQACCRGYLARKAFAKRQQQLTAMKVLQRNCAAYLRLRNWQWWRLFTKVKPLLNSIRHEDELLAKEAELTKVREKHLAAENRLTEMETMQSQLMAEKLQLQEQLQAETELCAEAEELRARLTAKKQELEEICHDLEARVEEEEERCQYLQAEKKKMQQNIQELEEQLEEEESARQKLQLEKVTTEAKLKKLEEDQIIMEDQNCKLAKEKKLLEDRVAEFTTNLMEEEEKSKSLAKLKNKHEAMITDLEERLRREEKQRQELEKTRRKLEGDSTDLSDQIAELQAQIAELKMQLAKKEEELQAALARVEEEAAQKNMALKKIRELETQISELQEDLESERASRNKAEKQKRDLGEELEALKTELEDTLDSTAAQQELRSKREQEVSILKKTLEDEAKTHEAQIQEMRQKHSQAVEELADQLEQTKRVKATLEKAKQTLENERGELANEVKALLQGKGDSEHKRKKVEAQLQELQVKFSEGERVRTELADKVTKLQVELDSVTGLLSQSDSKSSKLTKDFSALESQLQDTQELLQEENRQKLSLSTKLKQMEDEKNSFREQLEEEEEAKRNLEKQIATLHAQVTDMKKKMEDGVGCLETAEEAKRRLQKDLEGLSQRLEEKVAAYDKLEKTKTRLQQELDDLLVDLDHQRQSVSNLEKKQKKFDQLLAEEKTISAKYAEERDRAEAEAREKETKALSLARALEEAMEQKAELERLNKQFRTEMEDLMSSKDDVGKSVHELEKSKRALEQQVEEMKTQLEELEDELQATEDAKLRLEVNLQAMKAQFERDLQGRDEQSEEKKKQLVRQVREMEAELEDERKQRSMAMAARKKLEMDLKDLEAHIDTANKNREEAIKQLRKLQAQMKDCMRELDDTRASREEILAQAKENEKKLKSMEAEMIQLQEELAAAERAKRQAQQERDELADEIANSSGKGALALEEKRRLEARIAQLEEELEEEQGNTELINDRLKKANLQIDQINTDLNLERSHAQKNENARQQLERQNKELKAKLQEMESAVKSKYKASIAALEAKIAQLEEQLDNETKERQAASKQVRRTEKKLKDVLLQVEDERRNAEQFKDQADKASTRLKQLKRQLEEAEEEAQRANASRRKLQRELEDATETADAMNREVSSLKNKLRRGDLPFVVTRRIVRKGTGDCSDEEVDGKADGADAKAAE
# [6] = target: T3, AEA-DA lipid probe targets in Neuro2a cells (Mus musculus, UniProt Q91X78)
# T3 sequence (Q91X78 1-348): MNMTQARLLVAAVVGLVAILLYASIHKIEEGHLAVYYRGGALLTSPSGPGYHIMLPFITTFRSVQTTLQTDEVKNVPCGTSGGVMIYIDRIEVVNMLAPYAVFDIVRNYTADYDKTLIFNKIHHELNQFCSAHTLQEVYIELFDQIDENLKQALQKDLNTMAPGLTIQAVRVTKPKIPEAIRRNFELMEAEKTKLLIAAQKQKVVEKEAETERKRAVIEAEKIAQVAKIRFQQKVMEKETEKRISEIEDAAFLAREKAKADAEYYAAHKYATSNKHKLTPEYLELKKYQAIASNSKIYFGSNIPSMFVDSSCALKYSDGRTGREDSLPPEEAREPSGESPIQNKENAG
# [7] = target: AEA-DA lipid probe targets in Neuro2a cells (Mus musculus, UniProt Q9Z0V7)
# AEA-DA lipid probe targets in Neuro2a cells (Mus musculus, UniProt Q9Z0V7), sequence (Q9Z0V7 whole entry): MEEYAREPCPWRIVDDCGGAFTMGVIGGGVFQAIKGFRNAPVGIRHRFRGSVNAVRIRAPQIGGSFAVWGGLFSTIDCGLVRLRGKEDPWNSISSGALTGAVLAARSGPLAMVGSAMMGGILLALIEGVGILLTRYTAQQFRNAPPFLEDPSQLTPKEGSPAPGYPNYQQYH
# [8] = target: AEA-DA lipid probe targets in Neuro2a cells (Mus musculus, UniProt P97300); conditions: competitor 25 μM; for SILAC ratio, NPTN (Q9Y639): Neuro2a cells, AEA-DA probe
# AEA-DA lipid probe targets in Neuro2a cells (Mus musculus, UniProt P97300), sequence (P97300 29-397): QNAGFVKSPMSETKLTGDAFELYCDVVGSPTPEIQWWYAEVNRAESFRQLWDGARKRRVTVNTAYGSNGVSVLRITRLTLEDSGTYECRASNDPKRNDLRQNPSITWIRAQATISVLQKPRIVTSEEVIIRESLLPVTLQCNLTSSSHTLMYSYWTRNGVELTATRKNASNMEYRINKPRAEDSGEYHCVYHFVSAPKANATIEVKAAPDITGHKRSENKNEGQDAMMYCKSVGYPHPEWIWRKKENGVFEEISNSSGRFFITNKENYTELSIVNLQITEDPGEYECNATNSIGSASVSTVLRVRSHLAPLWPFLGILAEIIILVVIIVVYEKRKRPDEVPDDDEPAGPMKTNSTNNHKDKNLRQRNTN
# [9] = target: T4, AEA-DA lipid probe targets in Neuro2a cells (Mus musculus, UniProt Q8JZN5)
# T4 sequence (Q8JZN5 42-625): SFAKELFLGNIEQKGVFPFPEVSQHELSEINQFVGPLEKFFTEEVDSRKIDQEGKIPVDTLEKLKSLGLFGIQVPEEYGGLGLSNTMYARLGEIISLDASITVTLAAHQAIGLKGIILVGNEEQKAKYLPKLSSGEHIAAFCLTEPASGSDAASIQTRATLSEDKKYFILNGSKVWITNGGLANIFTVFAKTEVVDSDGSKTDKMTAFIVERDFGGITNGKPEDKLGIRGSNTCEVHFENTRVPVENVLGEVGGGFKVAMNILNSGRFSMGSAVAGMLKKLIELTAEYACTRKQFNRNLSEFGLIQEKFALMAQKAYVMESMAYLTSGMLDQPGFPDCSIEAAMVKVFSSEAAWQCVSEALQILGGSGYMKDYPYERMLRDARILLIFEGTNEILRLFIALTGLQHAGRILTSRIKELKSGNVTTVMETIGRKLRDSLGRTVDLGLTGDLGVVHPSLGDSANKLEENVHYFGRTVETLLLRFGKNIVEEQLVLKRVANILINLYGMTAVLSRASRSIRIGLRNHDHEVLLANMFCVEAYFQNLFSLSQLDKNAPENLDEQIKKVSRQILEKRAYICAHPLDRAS
smiles,measurement,setting,value
"CCCCC/C=C\C/C=C\C/C=C\C/C=C\CCCC(=O)NCCO [AEA, anandamide, reference compound]","SILAC ratio, Bnip1",[1]; competitor 200 μM,2.1
same,SILAC ratio Mtch1,[2]; competitor 200 μM,1.4
same,SILAC ratio Immt,[3]; competitor 200 μM,1.2
same,SILAC ratio Slc25a1,[4]; competitor 200 μM,1.2
same,SILAC ratio Myh9,[5]; competitor 200 μM,1.1
same,SILAC ratio Erlin1,[6]; competitor 200 μM,1.7
same,"SILAC ratio, Timm17b",[7]; competitor 200 μM,1.6
"O=C(/C=C/c1cccnc1)NCCCCC1CCN(C(=O)c2ccccc2)CC1 [FK-866, reference compound]","SILAC ratio, NPTN (Q9Y639)",[8],1.2
same,"SILAC ratio, Nptn",[8],1.2
same,SILAC ratio Mtch1,[2]; competitor 25 μM,1.0
same,SILAC ratio Immt,[3]; competitor 25 μM,1.1
same,SILAC ratio Acad9,[9]; competitor 25 μM,1.2
same,SILAC ratio Slc25a1,[4]; competitor 25 μM,1.2
same,SILAC ratio Myh9,[5]; competitor 25 μM,1.2
same,SILAC ratio Erlin1,[6]; competitor 25 μM,1.0
same,"SILAC ratio, Timm17b",[7]; competitor 25 μM,1.2
"CN1CCN(C(=O)c2c(-c3ccccc3)c3cc([N+](=O)[O-])ccc3n2C)CC1 [KML110, (1-Methyl-5-nitro-3-phenyl-1H-indol-2-yl)(4-methylpiperazin-1-yl)methanone]","SILAC ratio, Bnip1",[1]; competitor 25 μM,1.3
same,SILAC ratio Mtch1,[2]; competitor 25 μM,1.2
same,SILAC ratio Immt,[3]; competitor 25 μM,1.3
same,SILAC ratio Acad9,[9]; competitor 25 μM,1.7
same,SILAC ratio Slc25a1,[4]; competitor 25 μM,1.2
same,SILAC ratio Myh9,[5]; competitor 25 μM,1.7
same,"SILAC ratio, Timm17b",[7]; competitor 25 μM,1.8
"CN1CCN(C(=O)c2[nH]c3ccc([N+](=O)[O-])cc3c2-c2ccccc2)CC1 [MJN228, (4-Methylpiperazin-1-yl)(5-nitro-3-phenyl-1H-indol-2-yl)methanone]","SILAC ratio, NPTN (Q9Y639)",[8],1.9
same,"SILAC ratio, Nptn",[8],1.9
same,"SILAC ratio, Bnip1",[1]; competitor 10 μM,1.2
same,"SILAC ratio, Bnip1",[1]; competitor 25 μM,1.1
same,SILAC ratio Mtch1,[2]; competitor 10 μM,1.1
same,SILAC ratio Mtch1,[2]; competitor 25 μM,1.2
same,SILAC ratio Mtch1,[2]; competitor 50 μM,1.0
same,SILAC ratio Mtch1,[2]; competitor 100 μM,1.2
same,SILAC ratio Immt,[3]; competitor 10 μM,1.1
same,SILAC ratio Immt,[3]; competitor 25 μM,1.2
same,SILAC ratio Immt,[3]; competitor 50 μM,1.1
same,SILAC ratio Immt,[3]; competitor 100 μM,1.4
same,SILAC ratio Acad9,[9]; competitor 10 μM,1.4
same,SILAC ratio Acad9,[9]; competitor 25 μM,1.2
same,SILAC ratio Acad9,[9]; competitor 50 μM,1.4
same,SILAC ratio Acad9,[9]; competitor 100 μM,1.4
same,SILAC ratio Slc25a1,[4]; competitor 10 μM,1.2
same,SILAC ratio Slc25a1,[4]; competitor 25 μM,1.1
same,SILAC ratio Slc25a1,[4]; competitor 50 μM,1.5
same,SILAC ratio Slc25a1,[4]; competitor 100 μM,1.5
same,SILAC ratio Myh9,[5]; competitor 10 μM,1.2
same,SILAC ratio Myh9,[5]; competitor 25 μM,1.3
same,SILAC ratio Myh9,[5]; competitor 50 μM,1.2
same,SILAC ratio Myh9,[5]; competitor 100 μM,1.6
same,SILAC ratio Erlin1,[6]; competitor 10 μM,1.4
same,SILAC ratio Erlin1,[6]; competitor 25 μM,1.1
same,SILAC ratio Erlin1,[6]; competitor 100 μM,1.1
same,"SILAC ratio, Timm17b",[7]; competitor 10 μM,1.3
same,"SILAC ratio, Timm17b",[7]; competitor 25 μM,1.5
same,"SILAC ratio, Timm17b",[7]; competitor 50 μM,2.2
same,"SILAC ratio, Timm17b",[7]; competitor 100 μM,3.6
"C=CCN(C)CCCCCCOc1ccc(C(=O)c2ccc(Br)cc2)c(F)c1 [Ro 48-8071, reference compound]","SILAC ratio, NPTN (Q9Y639)",[8],2.0
same,"SILAC ratio, Nptn",[8],2.0
same,"SILAC ratio, Bnip1",[1]; competitor 25 μM,1.0
same,SILAC ratio Mtch1,[2]; competitor 25 μM,0.9
same,SILAC ratio Immt,[3]; competitor 25 μM,1.0
same,SILAC ratio Acad9,[9]; competitor 25 μM,1.3
same,SILAC ratio Slc25a1,[4]; competitor 25 μM,1.0
same,SILAC ratio Myh9,[5]; competitor 25 μM,1.0
same,SILAC ratio Erlin1,[6]; competitor 25 μM,1.2
same,"SILAC ratio, Timm17b",[7]; competitor 25 μM,2.8

# Reference: patent US10168342B2, “Lipid probes and uses thereof” (THE SCRIPPS RESEARCH INSTITUTE, priority 2015, dated 2019)
